# Target: T1, human CCR10 (Homo sapiens, UniProt P46092)
# T1 construct: expressed in transfected cells; host or cells: KJMGER8 cells (Namalwa cell-derived line), beta-estradiol-induced; hCCR10G16 cells
# T1 sequence (P46092 1-362): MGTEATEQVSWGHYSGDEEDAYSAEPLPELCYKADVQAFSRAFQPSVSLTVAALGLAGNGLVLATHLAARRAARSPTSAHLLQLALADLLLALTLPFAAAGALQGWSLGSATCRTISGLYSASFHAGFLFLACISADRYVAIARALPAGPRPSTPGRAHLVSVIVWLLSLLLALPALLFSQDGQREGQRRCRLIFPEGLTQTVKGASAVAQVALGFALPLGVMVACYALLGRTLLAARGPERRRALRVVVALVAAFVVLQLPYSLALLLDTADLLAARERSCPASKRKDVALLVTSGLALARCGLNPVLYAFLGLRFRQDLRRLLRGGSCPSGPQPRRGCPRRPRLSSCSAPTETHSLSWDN
# Experiment: CCR10 antagonistic effect: calcium assay of human CCR10 (CTACK-induced increase of intracellular calcium in hCCR10G16 cells)
# Assay type: cell-based
# Details: at a concentration of not more than 1000 nmol/L; human CCR10-expressing hCCR10G16 cells, 300 nmol/L CTACK added; read-out: inhibition of increase in the calcium ion concentration
# Method: [Experimental Example 1] CCR10 Antagonistic Effect
# (1) Preparation of Human CCR10-Inducible Expression Plasmid
# A CCR10-inducible expression plasmid was prepared according to a known method [Analytical Biochemistry, 2006, vol. 400, page 163]. A DNA encoding human CCR10 was obtained by PCR. Using human chromosome DNA (100 ng; manufactured by Clontech) as a template, synthetic DNA having the sequences depicted in SEQ ID NOs: 1 and 2 as a human CCR10 cDNA specific primer, and Pyrobest DNA Polymerase (manufactured by TAKARA SHUZO CO. LTD.) as an enzyme, a DNA encoding human CCR10 was obtained by PCR. As a buffer for PCR, the buffer attached to the enzyme to be used, which was diluted 10-fold with deionized water, was used. Using Thermal Cycler DNA Engine (manufactured by MJ Research), PCR was performed by 35 cycles of reactions composed of an incubation at 94° C. for 30 sec, at an anneal temperature of 58° C. for 30 sec, and at 72° C. for 1 min after treating at 90° C. for 2 min.
# The amplified PCR fragment was cleaved with HindIII and NotI, then a human CCR10 DNA fragment was recovered by the agarose gel electrophoresis method. The fragment was incorporated between the corresponding restriction enzyme sites (HindIII-NotI) of an inducible expression vector to construct a human CCR10-inducible expression plasmid.
# Using a primer specific to the sequence of plasmid (synthetic DNA having the sequences shown in SEQ ID NOs: 3 and 4), the sequence of human CCR10 DNA region was determined. For the determination of the base sequence, DNA Sequencer 377 (manufactured by Perkin Elmer. Co.) and a reaction kit (ABI Prism (registered trade mark) BigDye (registered trade mark) Terminator Cycle Sequencing Ready Reaction kit: manufactured by Applied Biosystems) were used. The sequence of human CCR10 DNA was identical with the sequence (NM 016602) registered in GenBank.
# (2) Preparation of Human CCR10 Expressing Cell for Calcium Assay
# Cells for detecting signals from human CCR10 in calcium assay were prepared. According to a known method [Analytical.Biochemistry (Analy Biochem), 2006, vol. 400, page 163], human CCR10-inducible expressing cells whose host cell is KJMGER8 cell (Namalwa cell-derived cell line) were prepared. Human CCR10-inducible expression plasmid produced above and Gα16 expression plasmid were co-transfected into the KJMGER8 cells by the electroporation method [Cytotechnology, 1990, vol. 3, page 133], whereby the signals from human CCR10 could be detected by calcium assay (hereinafter to be referred to as hCCR10G16 cell). A Ga16 expression plasmid was produced by incorporating human Ga16 DNA into expression vector pAMoh (WO 03/087366). Expression of human CCR10 was induced by cultivating hCCR10G16 cells in the presence of 10 nmol/L β-estradiol (manufactured by Sigma Ltd.) for 24 hr.
# (3) Calcium Assay of Human CCR10
# Cells expressing human CCR10 induced by the above-mentioned method were suspended in RPMI1640 medium (manufactured by Invitrogen), and adjusted to a cell density of 2×10^6 cells/mL. The cells were blended with an equivalent volume of a loading buffer prepared according to the attached protocol of Fluo-3 calcium assay kit (manufactured by Molecular Devices Corporation), and incubated at 37° C. for several dozen minutes. This mixture was dispensed to a 384 well clear-bottom plate (manufactured by Corning Incorporated) at 40 μL/well. To this plate was added a solution of the test compound in dimethyl sulfoxide (DMSO), which was diluted 37-fold with RPMI1640 medium, at 5 μL/well, and the mixture was incubated at 37° C. for 30 min. 300 nmol/L human recombinant CTACK (manufactured by R&D Systems, Inc.) diluted with RPMI1640 medium containing 1 w/v % bovine serum albumin (manufactured by Sigma Ltd.) was added at 5 μL/well and, variation of intracellular calcium ion concentration for about 5 min after the addition was measured by a screening apparatus (FDSS; manufactured by Hamamatsu Photonics K.K.). […]
row,inhibition at up to 1 µM,Compound
1,≥ 50%,"Cc1cc(F)ccc1Nc1cc(S(=O)(=O)O)ncc1C(=O)N1CCC(c2ccc(F)cc2)CC1 [Compound 1, 4-(4-fluoro-2-methylphenylamino)-5-[4-(4-fluorophenyl)piperidine-1-carbonyl]pyridine-2-sulfonic acid]"
2,≥ 50%,"Cc1cc(F)ccc1Nc1cc(S(N)(=O)=O)ncc1C(=O)N1CCC(c2ccc(F)cc2)CC1 [Compound 2, 4-(4-fluoro-2-methylphenylamino)-5-[4-(4-fluorophenyl)piperidine-1-carbonyl]pyridine-2-sulfonamide]"
3,≥ 50%,"NS(=O)(=O)c1cc(Nc2ccc3c(c2)COC3)c(C(=O)N2CCC(c3ccc(F)cc3)CC2)cn1 [Compound 3, 4-(1,3-dihydroisobenzofuran-5-ylamino)-5-[4-(4-fluorophenyl)piperidine-1-carbonyl]pyridine-2-sulfonamide]"
4,≥ 50%,"NS(=O)(=O)c1cc(Nc2ccc3ncccc3c2)c(C(=O)N2CCC(c3ccc(F)cc3)CC2)cn1 [Compound 4, 5-[4-(4-fluorophenyl)piperidine-1-carbonyl]-4-(quinolin-6-ylamino)pyridine-2-sulfonamide]"
5,≥ 50%,"Cc1cc(F)ccc1Nc1cc(S(=O)(=O)NC2CC2)ncc1C(=O)N1CCC(c2ccc(F)cc2)CC1 [Compound 5, N-cyclopropyl-4-(4-fluoro-2-methylphenylamino)-5-[4-(4-fluorophenyl)piperidine-1-carbonyl]pyridine-2-sulfonamide]"
6,≥ 50%,"CC(=O)NC1CCN(S(=O)(=O)c2cc(Nc3ccc(F)cc3C)c(C(=O)N3CCC(c4ccc(F)cc4)CC3)cn2)C1 (stereo not drawn) [Compound 7, N-{1-{4-(4-fluoro-2-methylphenylamino)-5-[4-(4-fluorophenyl)piperidine-1-carbonyl]pyridin-2-ylsulfonyl}pyrrolidin-3-yl}acetamide]"
7,≥ 50%,"Cc1cc(F)ccc1Nc1cc(S(=O)(=O)NC2CCN(C)C2=O)ncc1C(=O)N1CCC(c2ccc(F)cc2)CC1 (stereo not drawn) [Compound 8, 4-(4-fluoro-2-methylphenylamino)-5-[4-(4-fluorophenyl)piperidine-1-carbonyl]-N-(1-methyl-2-oxopyrrolidin-3-yl)pyridine-2-sulfonamide]"
8,≥ 50%,"Cc1cc(F)ccc1Nc1cc(S(=O)(=O)N2CCNCC2)ncc1C(=O)N1CCC(c2ccc(F)cc2)CC1 [Compound 9, [4-(4-fluoro-2-methylphenylamino)-6-(piperazin-1-ylsulfonyl)pyridin-3-yl][4-(4-fluorophenyl)piperidin-1-yl]methanone]"
9,≥ 50%,"Cc1cc(F)ccc1Nc1cc(S(=O)(=O)N2CCC(N)CC2)ncc1C(=O)N1CCC(c2ccc(F)cc2)CC1 [Compound 10, [6-(4-aminopiperidin-1-ylsulfonyl)-4-(4-fluoro-2-methylphenylamino)pyridin-3-yl][4-(4-fluorophenyl)piperidin-1-yl]methanone]"
10,≥ 50%,"Cc1cc(NS(=O)(=O)c2cc(Nc3ccc(F)cc3C)c(C(=O)N3CCC(c4ccc(F)cc4)CC3)cn2)on1 [Compound 12, 4-(4-fluoro-2-methylphenylamino)-5-[4-(4-fluorophenyl)piperidine-1-carbonyl]-N-(3-methylisoxazol-5-yl)pyridine-2-sulfonamide]"
11,≥ 50%,"CC(=O)NS(=O)(=O)c1cc(Nc2ccc(F)cc2C)c(C(=O)N2CCC(c3ccc(F)cc3)CC2)cn1 [Compound 13, N-{4-(4-fluoro-2-methylphenylamino)-5-[4-(4-fluorophenyl)piperidine-1-carbonyl]pyridine-2-sulfonyl}acetamide]"
12,≥ 50%,"Cc1cc(F)ccc1Nc1cc(S(=O)(=O)NC(=O)C2CC2(F)F)ncc1C(=O)N1CCC(c2ccc(F)cc2)CC1 (stereo not drawn) [Compound 14, 2,2-difluoro-N-{4-(4-fluoro-2-methylphenylamino)-5-[4-(4-fluorophenyl)piperidine-1-carbonyl]pyridine-2-sulfonyl}cyclopropanecarboxamide]"
13,≥ 50%,"NS(=O)(=O)c1cc(NCc2ccccc2)c(C(=O)N2CCC(c3ccc(F)cc3)CC2)cn1 [Compound 15, 4-(benzylamino)-5-[4-(4-fluorophenyl)piperidine-1-carbonyl]pyridine-2-sulfonamide]"
14,≥ 50%,"CCCNC(=O)NS(=O)(=O)c1cc(NCc2ccccc2)c(C(=O)N2CCC(c3ccc(F)cc3)CC2)cn1 [Compound 16, 4-(benzylamino)-5-[4-(4-fluorophenyl)piperidine-1-carbonyl]-N-(propylcarbamoyl)pyridine-2-sulfonamide]"
15,≥ 50%,"Cc1cc(Nc2cc(S(N)(=O)=O)ncc2C(=O)N2CCC(c3ccc(F)cc3)CC2)c(C)cc1Cl [Compound 17, 4-(4-chloro-2,5-dimethylphenylamino)-5-[4-(4-fluorophenyl)piperidine-1-carbonyl]pyridine-2-sulfonamide]"
16,≥ 50%,"Cc1cc(Nc2cc(S(=O)(=O)NC(=O)NC(C)C)ncc2C(=O)N2CCC(c3ccc(F)cc3)CC2)c(C)cc1Cl [Compound 18, 4-(4-chloro-2,5-dimethylphenylamino)-5-[4-(4-fluorophenyl)piperidine-1-carbonyl]-N-(isopropylcarbamoyl)pyridine-2-sulfonamide]"
17,≥ 50%,"CCOC(=O)NS(=O)(=O)c1cc(Nc2cc(C)c(Cl)cc2C)c(C(=O)N2CCC(c3ccc(F)cc3)CC2)cn1 [Compound 19, ethyl 4-(4-chloro-2,5-dimethylphenylamino)-5-[4-(4-fluorophenyl)piperidine-1-carbonyl]pyridin-2-ylsulfonylcarbamate]"
18,≥ 50%,"Cc1cc(Cl)ccc1Nc1cc(S(N)(=O)=O)ncc1C(=O)N1CCC(c2ccc(F)cc2)CC1 [Compound 20, 4-(4-chloro-2-methylphenylamino)-5-[4-(4-fluorophenyl)piperidine-1-carbonyl]pyridine-2-sulfonamide]"
19,≥ 50%,"CCNC(=O)N(C)S(=O)(=O)c1cc(Nc2ccc(F)cc2C)c(C(=O)N2CCC(c3ccc(F)cc3)CC2)cn1 [Compound 23, N-(ethylcarbamoyl)-4-(4-fluoro-2-methylphenylamino)-5-[4-(4-fluorophenyl)piperidine-1-carbonyl]-N-methylpyridine-2-sulfonamide]"
20,≥ 50%,"Cc1cc(F)ccc1Nc1c(C(=O)N2CCC(c3ccc(F)cc3)CC2)cnc(S(=O)(=O)O)c1Cl [Compound 24, 3-chloro-4-(4-fluoro-2-methylphenylamino)-5-[4-(4-fluorophenyl)piperidine-1-carbonyl]pyridine-2-sulfonic acid]"
21,≥ 50%,"Cc1cccc(Nc2c(C(=O)N3CCC(c4ccc(F)cc4)CC3)cnc(S(N)(=O)=O)c2Cl)c1 [Compound 26, 3-chloro-5-[4-(4-fluorophenyl)piperidine-1-carbonyl]-4-(m-tolylamino)pyridine-2-sulfonamide]"
